Results from patent publication US10420734B2, “Method of treating cancer using selective estrogen receptor modulators” (Duke University, priority 2014, dated 2019).

What was measured:
[1] = molecular target: T1, ESR1 (Mus musculus, UniProt P19785); assay: Uterine wet weight analysis in ovariectomized C57Bl/6 mice; format: in vivo; settings: for uterine wet weight, single agent: without E2
T1 construct: tissue Charles River (mice); host or cells: uterus of ovariectomized female C57Bl/6 mice
T1 sequence (P19785 1-599): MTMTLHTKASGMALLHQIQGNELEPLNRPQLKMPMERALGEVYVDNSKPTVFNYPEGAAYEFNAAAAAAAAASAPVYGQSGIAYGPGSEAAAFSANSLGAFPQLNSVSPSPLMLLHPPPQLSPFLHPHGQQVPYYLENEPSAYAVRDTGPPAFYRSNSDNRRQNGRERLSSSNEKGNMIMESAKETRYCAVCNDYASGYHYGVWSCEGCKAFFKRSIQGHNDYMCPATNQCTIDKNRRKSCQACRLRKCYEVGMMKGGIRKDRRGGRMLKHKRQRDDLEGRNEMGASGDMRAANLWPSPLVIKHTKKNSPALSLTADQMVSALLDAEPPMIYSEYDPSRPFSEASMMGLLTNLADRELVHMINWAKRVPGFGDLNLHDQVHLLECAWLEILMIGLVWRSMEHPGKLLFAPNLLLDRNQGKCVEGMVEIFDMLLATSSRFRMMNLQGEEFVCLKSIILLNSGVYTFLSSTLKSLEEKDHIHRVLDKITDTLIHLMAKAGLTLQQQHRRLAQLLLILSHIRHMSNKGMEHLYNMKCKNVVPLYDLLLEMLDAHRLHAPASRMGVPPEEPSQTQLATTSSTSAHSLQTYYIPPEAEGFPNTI
Protocol: Uterine wet weight analysis: Ovariectomized (10 days prior) female C57Bl/6 mice (Charles River) were treated daily (n=5) for 3 days with vehicle or estradiol benzoate (10 μg/kg sc) as well as vehicle, raloxifene (10 mg/kg sc), or RAD1901 (0.1-100 mg/kg sc). Ligands were dissolved in corn oil (Spectrum chemicals). On day 4, mice were euthanized and tissues were retained for analysis. Uterine wet weight was calculated as a ratio of uterus weight upon removal to body weight post-mortem.
As a first step, the impact of RAD1901 on uterine wet weight in mice was evaluated. For this study, increasing doses of RAD1901 was administered daily to ovariectomized C57Bl/6 mice receiving vehicle alone or E2 (10 μg/kg; a physiological replacement dose). A group of mice receiving 10 mg/kg of raloxifene was included for comparative purposes and for reference. Ovariectomized C57Bl/6 mice (n=5) were treated daily for 3 days with (FIG. 8A) vehicle or (FIG. 8B) estradiol (10 μg/kg) together with vehicle, Ralox (10 mg/kg) or RAD1901 (RAD), ([…]). At euthanasia, body weight as well as uterine wet weight was measured prior to cryopreservation of the uterus. […] For FIG. 8C, ESR1 and β-actin expression in extracts made from pulverized uterine tissues were analyzed by immunoblot as in FIG. 5 (left). ESR1 expression relative to β-actin was quantitated as in FIG. 6 (right). Significant downregulation (*p<0.05) of ESR1 was determined by ANOVA followed by Bonferroni comparison.

[2] = test system: MCF7 xenograft tumors; assay: MCF7 xenograft tumor study after estrogen pellet removal; format: in vivo, mice
Protocol: Xenograft tumor analysis: Estrogen-stimulated MCF7 tumors were initiated in the axial mammary gland of 6-week old estrogen-treated (0.72 mg/60 days pellet sc, Innovative Research of America) ovariectomized female NU/NU mice (in-house colony) by serial transfer and were measured as described (Wardell et al., (2013) Clin Cancer Res 19 (9):2420-2431). […] FIG. 9: At ˜0.1 cm^3 tumor volume, the estrogen pellet was surgically removed, and mice were randomized (n=6-10) to daily treatment with vehicle or RAD1901 (0.3-10 mg/kg). Treatments were formulated as above. Animal tissues were processed and analyzed as described (Wardell et al., (2013) Clin Cancer Res 19 (9):2420-2431).
As shown above, high dose RAD1901 (20 mg/kg) inhibited the growth of ESR1-dependent MCF7-cell derived tumors in mice. However, the observation that uterine wet weight was increased in mice treated with doses of RAD1901 that were lower than that required to effect ESR1 turnover highlighted the need to examine whether a similar biphasic pharmacology was manifest in breast tumors. To further evaluate the pharmacology of RAD1901, a second xenograft tumor study was conducted in which MCF7 tumors were established under estrogen stimulation. For FIG. 9A, MCF7 xenograft tumors were initiated in ovariectomized female nu/nu mice as in FIG. 5. Estrogen pellets were surgically removed when tumors reached ˜0.1 cm^3 volume, and animals (n=6-10) then received daily treatment with vehicle or RAD1901 (RAD), (0.3-10 mg/kg sc). Mean tumor volume+/−SEM per day of treatment was presented. Significance as compared to the vehicle (2-way ANOVA of matched values followed by Bonferroni comparison) was indicated (*p<0.05, **p<0.0005). For FIG. 9B, uterine wet weight at sacrifice (measured as in FIG. 8) and % change in tumor volume (as compared to size at randomization) calculated using the final measurement recorded for mice in (FIG. 9A) are graphically presented. For FIGS. 9C-9D, expression of ESR1 target genes in tumors was analyzed essentially as in FIG. 5. Estrogen only samples from FIG. 5D were included for comparison. For FIG. 9E, ESR1 levels in tumor tissues were analyzed as in FIG. 8 and were normalized to similarly detected Lamin-A. Significant downregulation (*p<0.05) was determined by ANOVA followed by Bonferroni comparison.

ESR1 expression in uterine tissue (immunoblot) ([1]; 0.3 mg/kg): no decrease in ESR1 expression
uterine wet weight, single agent ([1]; 0.3 mg/kg sc daily for 3 days): statistically significant increase
ESR1 expression in uterine tissue (immunoblot) ([1]; RAD1901 0.3-100 mg/kg): dose dependent downregulation
SMILES: CCNCCc1ccc(CN(CC)c2cc(OC)ccc2[C@@H]2CCc3cc(O)ccc3C2)cc1 [RAD1901, (R)-6-{2-{ethyl[4-(2-ethylaminoethyl)benzyl]amino}-4-methoxyphenyl}-5,6,7,8-tetrahydronaphthalen-2-ol]
uterine wet weight, single agent ([1]; doses of 1 mg/kg and above, sc daily for 3 days): indistinguishable from vehicle treated animals
E2-dependent increases in uterine wet weight ([1]; with estradiol 10 μg/kg, RAD1901 0.3-100 mg/kg): inhibit E2-dependent increases in uterine wet weight
ESR1 levels in tumor extracts (immunoblot) ([2]; 0.3-10 mg/kg): dose-dependent downregulation
final tumor size ([2]; 1 or 3 mg/kg groups): significantly increased
tumor growth after estrogen withdrawal ([2]; 1 or 3 mg/kg sc daily): significant stimulation of tumor growth
expression of AGR2 in tumors ([2]; 1 or 3 mg/kg treatment groups): observed
expression of classical ESR1 target genes such as PGR in tumors ([2]; 1 or 3 mg/kg treatment groups): not observed
tumor growth after estrogen withdrawal ([2]; higher dose (10 mg/kg) sc daily): not apparent at the higher dose
uterine wet weight at sacrifice ([2]; nu/nu mice, 0.3-10 mg/kg sc daily): stimulation of uterine weight was apparent in mice treated with only the 0.3 mg/kg dose
